Measured values taken from patent publication US20240148000A1, “METHOD FOR CONTROLLING HARMFUL ARTHROPODS OR HARMFUL NEMATODES USING ZOANTHAMINE” (SUMITOMO CHEMICAL COMPANY, LIMITED, priority 2021, published 2024).

How the values were obtained:
[1] = tested on: brown planthoppers (Nilaparvata lugens); test: Test Method 5: foliar spray on rice seedling, brown planthoppers; type: in vivo; settings: 200 ppm, sprayed 10 mL/seedling on rice, third-instar larvae, after 6 days
Protocol: (§1) Next, Test Examples are used to show efficacy of the Present compounds on controlling harmful arthropods and harmful nematodes. The following Test Examples were carried out at 25° C. Also, the “untreated group” represents a group where the similar treatment procedure to that of the treated group except not using the test compound is done.
The test compound is made to a formulation according to a similar method to that described in the Formulation Example 5, and thereto is added water containing 0.03 v/v % of Shindain (registered trademark) to prepare a diluted solution containing a prescribed concentration of the test compound.
Rice (Oryza sativa) seedling (on the developmental stage of the second true leaf) is planted in a container, and the diluted solutions are sprayed to the seedling at a ratio of 10 mL/seedling. Thereafter, 20 of third-instar larvae of brown planthoppers (Nilaparvata lugens) are released onto the rice seedling. After 6 days, the number of the surviving insects is examined and the mortality of insects is calculated by the following equation.
Mortality={1−Number of surviving insects/20}×100
The test was conducted by making the prescribed concentration 200 ppm and using each of the below-mentioned Present compounds as a test compound according to the Test Method 5.

[2] = tested on: diamondback moth (Plutella xylostella); test: Test Method 2: foliar spray on cabbage seedling, diamondback moth larvae; type: in vivo; settings: third-instar larvae, after 6 days
Protocol: as §1
(§2) Test compound is made to a formulation according to a similar method to that described in the Formulation Example 5, and thereto is added water containing 0.03 v/v % of Shindain (registered trademark) to prepare a diluted solution containing a prescribed concentration of the test compound.
(§3) Cabbage (Brassicae oleracea) seedling (on the developmental stage of the third to fourth true leaf) is planted in a container, and the diluted solutions are sprayed to the seedling at a ratio of 20 mL/seedling. Thereafter, 10 of third-instar larvae of diamondback moth (Plutella xylostella) are released to the container. After 6 days, the number of the surviving insects is counted, and the mortality of insects is calculated by the following equation.
(§4) Mortality (%)=(1−Number of surviving insects/10)×100
The test was conducted by making the prescribed concentration 200 ppm and using each of the below-mentioned Present compounds as a test compound according to the Test Method 2.
The test was conducted by making the prescribed concentration 500 ppm and using the below-mentioned Present compound as a test compound according to the Test Method 2 except for formulating it according to the Formulation Example 1 instead of the Formulation Example 5.

[3] = tested on: common house mosquito (Culex pipiens pallens) female adults; test: Test Method 10: coated container contact test, common house mosquito female adults; type: in vivo; settings: 10 mg/m^2 coated on inner face of container, after 1 day
Protocol: as §1
(§5) The test compound is dissolved into acetone containing a surfactant, then the solution is poured into a 20 mL container, the solution is coated uniformly on the inner face of the container so that the test compound will be 10 mg/m^2 and the surfactant will be 40 mg/m^2, and the container is then dried.
Five (5) common house mosquito (Culex pipiens pallens) female adults are released into the container, and the container is then covered with lid. After the prescribed time, the state of the common house mosquito is examined, and the mortality is calculated by the following equation.
(§6) Mortality (%)=(Number of dead insects/Number of tested insects)×100
The test was conducted by making the prescribed time 1 day and using each of the below-mentioned Present compounds as a test compound.

[4] = tested on: common house mosquito (Culex pipiens pallens) last instar larvae; test: Test Method 9: common house mosquito larvae in diluted solution; type: in vivo; settings: 3.5 ppm in water, Formulation Example 1, last instar larvae, after 1 day
Protocol: as §1
The test compound is made to a formulation according to a similar method to that described in the Formulation Example 1, and thereto is added water to prepare a diluted solution containing a prescribed concentration of the test compound.
Into the diluted solution, 30 last instar larvae of common house mosquito (Culex pipiens pallens) are released, and after 1 day, the state of the common house mosquito larvae is examined, and the mortality of insects is calculated by the following equation.
as §6
The test was conducted by making the prescribed concentration 3.5 ppm and using each of the below-mentioned Present compounds as a test compound according to the Test Method 9.

[5] = tested on: cat flea (Ctenocephalides felis); test: Test Method 11: coated container contact test, cat flea adults; type: in vivo; settings: 20 mg/m^2 coated on inner face of container, after 2 days
Protocol: as §1
as §5, with “20” for “10”
Ten (10) cat flea (Ctenocephalides felis) adults are released into the container, and the container is then covered with lid. After the prescribed time, the state of the cat flea is examined, and the mortality is calculated by the following equation.
as §6
The test was conducted by making the prescribed time 2 days and using each of the below-mentioned Present compounds as a test compound.

[6] = tested on: cotton worm (Spodoptera litura); test: Test Method 1: foliar spray on cabbage seedling, cotton worm larvae; type: in vivo; settings: 200 ppm, sprayed 20 mL/seedling on cabbage, third-instar larvae, after 6 days, Formulation Example 5, 25° C.
Protocol: as §1, §2
as §3, with “cotton worm (Spodoptera litura)” for “diamondback moth (Plutella xylostella)”, “released.” for “released to the container.”
as §4
The test was conducted by making the prescribed concentration 200 ppm and using each of the below-mentioned Present compounds as a test compound according to the Test Method 1.

[7] = tested on: southern root-knot nematodes (Meloidogyne incognita); test: Test Example 12: tomato seedlings in soil contaminated with southern root-knot nematodes; type: in vivo; settings: 60 mg in 60 mL: 20 mL mixed with 400 mL contaminated soil, 40 mL irrigated; tomato roots after 28 days; untreated group 5
Protocol: as §1
The Present compound 1 or 2 (60 mg) was dissolved into acetone (600 μL) containing 5% of Tween 20, and then thereto was added water to prepare a solution (60 mL).
The solution (20 mL) and soil (400 mL) contaminated with southern root-knot nematodes (Meloidogyne incognita) were mixed, and roots of healthy tomato (Lycopersicon esculentum) seedlings (third to fourth leaf stage) were transferred to the soil. Shortly after the transfer, the remaining solution (40 mL) was irrigated to the soil of the tomato seedlings.
After 28 days, the roots were pulled out of the soil, washed with water, and the degree of root damage (degree of root-knot) was investigated according to the Zeck's root-knot index (Zeck, W. M. (1971): Pflanzenschutz-Nachichten. Bayer AG, 24, 141-144.).
• 0: No root-knot is observed. • 1: Several small root-knots can be recognized by careful observation. • 2: Several small root-knots similar to 1 can be easily identified. • 3: There are many small root-knots, and some of which are fused. […]

[8] = tested on: P388 mouse leukemia cells; settings: Nonpatent Document 2; cited from earlier work
[9] = 200 ppm, sprayed 20 mL/seedling on cabbage, Formulation Example 5, 25° C.

Molecule | mortality [1] [%] | mortality [2, 9] [%] | mortality [3] [%] | mortality [4] [%] | mortality [5] [%] | mortality [6] [%] | root-knot index (Zeck's root-knot index) [7] | mortality ([2]; 500 ppm, Formulation Example 1 instead of 5, sprayed 20 mL/seedling on cabbage) [%] | growth of P388 mouse leukemia cells [8]
CC1=CC(=O)[C@H]2CC(=O)[C@H]3[C@@](C)(C[C@@]45OC(=O)C[C@]3(C)[C@]4(C)CC[C@]34C[C@@H](C)C[C@H](CN35)O4)[C@@H]2C1 [compound 1] | 100 | 100 | 100 | 100 | 100 | 100 | 2 (Several small root-knots similar to 1 can be easily identified.) |  | 
CC1=CC(=O)[C@@H]2[C@@H](C1)[C@]1(C)C[C@@]34OC(=O)C[C@@](C)([C@H]1C(=O)[C@@H]2C)[C@]3(C)CC[C@]12C[C@@H](C)C[C@H](CN14)O2 [compound 2] | 100 | 100 | 100 | 100 | 100 | 100 | 2 (Several small root-knots similar to 1 can be easily identified.) |  | 
CC1=CC(=O)[C@H]2CC(=O)[C@H]3[C@@](C)(C(=O)[C@@]45OC(=O)C[C@]3(C)[C@]4(C)CC[C@]34C[C@@H](C)C[C@H](CN35)O4)[C@@H]2C1 [compound 3] |  |  |  | 100 |  |  |  |  | 
CC1=CC(=O)[C@@H]2[C@@H](C1)[C@]1(C)C(=O)[C@@]34OC(=O)C[C@@](C)([C@H]1C(=O)[C@@H]2C)[C@]3(C)CC[C@]12C[C@@H](C)C[C@H](CN14)O2 [compound 4] |  |  |  | 100 |  |  |  | 80 | 
CC1=CC(=O)[C@H]2CC(=O)[C@H]3[C@@](C)(C[C@@]45OC(=O)C[C@]3(C)[C@]4(C)CC[C@]34C[C@@H](C)C[C@H](CN35)O4)[C@@H]2C1.Cl [compound 5] | 100 | 100 | 100 |  |  | 100 |  |  | 
CC1=CC(=O)[C@@H]2[C@@H](C1)[C@]1(C)C[C@@]34OC(=O)C[C@@](C)([C@H]1C(=O)[C@@H]2C)[C@]3(C)CC[C@]12C[C@@H](C)C[C@H](CN14)O2.Cl [compound 6] | 100 | 100 | 100 |  |  | 100 |  |  | 
norzoanthamine [Present compound 1] |  |  |  |  |  |  |  |  | inhibits the growth
